Columns and labels:
Assay type in all cases: in vivo, human
[1] = test system: patients qualified under the DSM-5 definition of autism; test: Example 4: DSM-V score; design: DSM-V TOTAL / DSM-V social / DSM-V communication / DSM-V relationships / DSM-V behavior: scale not given here; conditions: for DSM V relationships / DSM V communication / DSM V social / DSM V behavior / DSM V TOTAL: PT RS; for DSM V relationships: initial 1; for DSM V communication / DSM V social: initial 5; for DSM V TOTAL: initial 21
Protocol: α-methyl-DL tyrosine (AMPT) was administered to 3 patients. This group of patients was qualified under the DSM-5 definition of autism and treated. The Aberrant Behavior Checklist-Community (ABC-C), Autism Diagnostic Observation Schedule (ADOS), Conners Parent Rating Scale (CPRS), and General Clinical Impressions scale were used to assess the disease. Videos were taken at each visit.

patients with autism = test: Example 5: open-label evaluation of L1-79 (ABC-C, ADOS-2)
Protocol: L1-79 was used anecdotally in two patients followed by a more structured evaluation in 8 additional patients with autism. All patients were administered a starting dose of L1-79 of 90 mg TID for a minimum of 3 months. During the evaluation doses as high as 400 mg TID were used. A summary of data available on these 10 patients was provided in the Summary of Clinical Efficacy, Use of L1-79 to treat autism, submitted to IND 128673, sequence number 0005.

[2] = test system: male patients diagnosed with autism; test: Study HT 02-121: Vineland Adaptive Behavior Scales, Second Edition (VABS II); conditions: Week 4/LOCF
Protocol: This clinical study was a randomized double-blind, placebo-controlled two-cohort, 4-week dose-escalation study that incorporated two open-label treatment groups to assess the safety and efficacy of L1-79 100 mg and 200 mg TID in male patients between the ages of […] years of age diagnosed with autism. The first cohort of 20 patients was comprised of three groups of patients: The first group of five patients received open-label L1-79 100 mg TID and underwent PK and EKG assessments. The remaining two groups in this cohort consisted of 15 patients randomized on a 2:1 basis to receive L1-79 100 mg TID or placebo. The PK and safety data from the open-label L1-79 100 mg TID group was submitted to FDA for review and acceptance before the second cohort was enrolled. The second cohort was procedurally identical to the first. The second cohort of 20 patients was comprised of the same three groups of patients but a dose of 200 mg TID was used instead of 100 mg TID. The key inclusion criteria were as follows: (1) males between 13 and 21 years of age, (2) DSM-5 compliant diagnosis of autism spectrum disorder, confirmed by the Autistic Diagnosis Interview Review (ADIR), and by an ADOS-2 score consistent with a diagnosis of autism, (3) must have been stable on no more than one concomitant medication and no planned changes in psychosocial interventions during the study.
The primary efficacy endpoint was the determination of the clinical improvement by the investigator as documented by the Clinical Global Impression (CGI) rating scales. Additional efficacy endpoints included: (1) changes from baseline in the Socialization and Communication Domains of the Vineland Adaptive Behavior Scales, Second Edition (VABS II) parent/caregiver rating form, (2) changes from baseline in the ADOS-2 Total Score and subscores, (3) changes in the Social Responsiveness Scale, Second Edition (SRS-2) Total Score and subscales, (4) changes in the ABC-C domains, (5) changes in the Repetitive Behavior Scale-Revised (RBS-R) Total Score and subscales. Given the exploratory design of this study only descriptive statistics were planned.
In the preliminary study, all forms were completed at the study site in the presence of the investigator. In Cohort 1 of the present study, the VABS-II, SRS-2, ABC-C and RBS-R were filled out at home by the patient/patient's families prior to treatment visits and returned at treatment visits in order to expedite the execution of the study.

Q: Which results are given for `CC(N)(Cc1ccc(O)cc1)C(=O)O` (racemic) [L1-79, α-methyl-DL-tyrosine]?
A: DSM-V social ([1]; PT LR, Day 7, initial 9): 5; DSM-V communication ([1]; PT LR, Day 7, initial 10): 4; DSM-V relationships ([1]; PT LR, Day 7, initial 11): 4; DSM-V behavior ([1]; PT LR, Day 7, initial 12): 12; DSM-V TOTAL ([1]; PT LR, Day 7, initial 42): 27; DSM-V social ([1]; PT LR, Day 14, initial 9): 3; DSM-V communication ([1]; PT LR, Day 14, initial 10): 3; DSM-V relationships ([1]; PT LR, Day 14, initial 11): 3; DSM-V behavior ([1]; PT LR, Day 14, initial 12): 12; DSM-V TOTAL ([1]; PT LR, Day 14, initial 42): 21; DSM-V social ([1]; PT LR, Day 21, initial 9): 2; DSM-V communication ([1]; PT LR, Day 21, initial 10): 2; DSM-V relationships ([1]; PT LR, Day 21, initial 11): 2; DSM-V behavior ([1]; PT LR, Day 21, initial 12): 12; DSM-V TOTAL ([1]; PT LR, Day 21, initial 42): 18; DSM-V social ([1]; PT LR, Day 28, initial 9): 2; DSM-V communication ([1]; PT LR, Day 28, initial 10): 2; DSM-V relationships ([1]; PT LR, Day 28, initial 11): 2; DSM-V behavior ([1]; PT LR, Day 28, initial 12): 12; DSM-V TOTAL ([1]; PT LR, Day 28, initial 42): 18; DSM V relationships ([1]; Day 7): 0; DSM V communication ([1]; Day 7): 4; DSM V social ([1]; Day 7): 3; DSM V behavior ([1]; Day 7, initial 10): 8; DSM V TOTAL ([1]; Day 7): 15; DSM V relationships ([1]; Day 14): 0; DSM V communication ([1]; Day 14): 1.5; DSM V social ([1]; Day 14): 1.5; DSM V behavior ([1]; Day 14, initial 10): 5; DSM V TOTAL ([1]; Day 14): 8; DSM V relationships ([1]; Day 21): 0; DSM V communication ([1]; Day 21): 1.5; DSM V social ([1]; Day 21): 1; DSM V behavior ([1]; Day 21, initial 10): 4; DSM V TOTAL ([1]; Day 21): 6.5; DSM V relationships ([1]; Day 28): 0; DSM V communication ([1]; Day 28): 1.5; DSM V social ([1]; Day 28): 1; DSM V behavior ([1]; Day 28, initial 10): 3; DSM V TOTAL ([1]; Day 28): 5.5; DSM-V communication ([1]; PT WC, Day 7, initial 3): 0; DSM-V relationships ([1]; PT WC, Day 7, initial 6): 2; DSM-V social ([1]; PT WC, Day 7, initial 6): 6; DSM-V behavior ([1]; PT WC, Day 7, initial 11): 9; DSM-V TOTAL ([1]; PT WC, Day 7, initial 26): 17; DSM-V communication ([1]; PT WC, Day 14, initial 3): 0; DSM-V relationships ([1]; PT WC, Day 14, initial 6): 2; DSM-V social ([1]; PT WC, Day 14, initial 6): 4; DSM-V behavior ([1]; PT WC, Day 14, initial 11): 8; DSM-V TOTAL ([1]; PT WC, Day 14, initial 26): 14; DSM-V communication ([1]; PT WC, Day 21, initial 3): 0; DSM-V relationships ([1]; PT WC, Day 21, initial 6): 2; DSM-V social ([1]; PT WC, Day 21, initial 6): 2; DSM-V behavior ([1]; PT WC, Day 21, initial 11): 8; DSM-V TOTAL ([1]; PT WC, Day 21, initial 26): 12; DSM-V communication ([1]; PT WC, Day 28, initial 3): 0; DSM-V relationships ([1]; PT WC, Day 28, initial 6): 2; DSM-V social ([1]; PT WC, Day 28, initial 6): 2; DSM-V behavior ([1]; PT WC, Day 28, initial 11): 7; DSM-V TOTAL ([1]; PT WC, Day 28, initial 26): 11; effect of longer treatment on core symptoms (patients with autism; open-label): greater magnitude of therapeutic benefits; ABC-C domains (patients with autism; open-label, 10 patients): consistent improvements; average reduction in the ADOS-2 (patients with autism; open-label, 10 patients, from 90 mg TID, minimum 3 months): 30%; ADOS-2 decrease in one child (loss of autism diagnosis) (patients with autism; open-label, one child): 60%; benefits after discontinuation (patients with autism; study drug discontinued): not all of the benefits regressed; VABS II Standardized Communication Score Mean Change from Baseline ([2]; DB 100 mg TID): 10.1; VABS II Standardized Communication Score Treatment effect versus placebo ([2]; DB 100 mg TID): 3.6; VABS II Standardized Communication Score change, median ([2]; DB 100 mg TID): −1, 5, 16; VABS II Standardized Socialization Score Mean Change from Baseline ([2]; DB 100 mg TID): −4.2; VABS II Standardized Socialization Score Treatment effect versus placebo ([2]; DB 100 mg TID): −5.0; VABS II Standardized Socialization Score change, median ([2]; DB 100 mg TID): −13, −12, 9; VABS II Standardized Communication Score Mean Change from Baseline ([2]; DB 200 mg TID): 2.7; VABS II Standardized Communication Score Treatment effect versus placebo ([2]; DB 200 mg TID): −3.8; VABS II Standardized Communication Score change, median ([2]; DB 200 mg TID): 0, 1, 3; VABS II Standardized Socialization Score Mean Change from Baseline ([2]; DB 200 mg TID): 7.6; VABS II Standardized Socialization Score Treatment effect versus placebo ([2]; DB 200 mg TID): 6.8; VABS II Standardized Socialization Score change, median ([2]; DB 200 mg TID): 0, 1, 20
